Molecular target: T1, AsPC-1 HiBiT-KRASG12D (Homo sapiens, UniProt P01116, G12D)
T1 construct: insert the HiBiT tag onto the N-terminus of one or more of the endogenous KRAS alleles; endogenous in cells; host or cells: AsPC-1 (ATCC CRL-1682), CRISPR-Cas9 knock-in clone, one tagged allele
Assay: HiBiT degradation assay (G12D), AsPC-1 HiBiT-KRASG12D cells
Assay type: cell-based
Conditions: 24 hours treatment; for DC50: AsPC-1 HiBiT-KRASG12D cells, HiBiT luminescence; for Dmax: ASPC1, AsPC-1 HiBiT-KRASG12D cells, maximum degradation observed
Method in brief: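 24 h cmpd treatment, 37° C/5% CO2, AsPC-1 HiBiT-KRASG12D clone (CRISPR N-term tag). Alamar blue 1×, 4 h, fluorescence. PBS wash, Nano-Glo HiBiT lytic reagent, 45 min RT, luminescence. Triplicates.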

T1 sequence (P01116 1-188 isoform P01116-2 G12D): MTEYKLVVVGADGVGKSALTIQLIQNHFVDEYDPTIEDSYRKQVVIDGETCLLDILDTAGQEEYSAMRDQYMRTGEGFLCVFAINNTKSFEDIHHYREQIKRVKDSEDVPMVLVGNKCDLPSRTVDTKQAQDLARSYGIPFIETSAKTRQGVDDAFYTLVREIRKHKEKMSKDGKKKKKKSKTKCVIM

Structure (SMILES)	DC50	Dmax
CCc1cccc2cc(O)cc(-c3ncc4c(N5CC6CCC(C5)N6)nc(OC[C@H]5CN(CC6CN(c7cc([C@@H](C(=O)N8C[C@H](O)C[C@H]8C(=O)N[C@@H](C)c8ccc(-c9scnc9C)cc8)C(C)C)on7)C6)CCN5C)nc4c3F)c12 [Compound 181, (2S,4R)-1-[(2S)-2-[3-(3-{[(3R)-3-{[(4-{3,8-diazabicyclo[3.2.1]octan-3-yl}-7-(8-ethyl-3-hydroxynaphthalen-1-yl)-8-fluoropyrido[4,3-d]pyrimidin-2-yl)oxy]methyl}-4-methylpiperazin-1-yl]methyl}azetidin-1-yl)-1,2-oxazol-5-yl]-3-methylbutanoyl]-4-hydroxy-N-[(1S)-1-[4-(4-methyl-1,3-thiazol-5-yl)phenyl]ethyl]pyrrolidine-2-carboxamide]	> 3000 nM	
CCc1cccc2cc(O)cc(-c3ncc4c(N5CC6CCC(C5)N6)nc(OCCN5CC(CC6CCN(c7cc([C@H](C(=O)N8C[C@H](O)C[C@H]8C(=O)N[C@@H](C)c8ccc(-c9scnc9C)cc8)C(C)C)on7)CC6)C5)nc4c3F)c12 [Compound 233]	< 600 nM	80 to 100%
C#Cc1c(F)ccc2cc(O)cc(-c3ncc4c(N5CC6CCC(C5)N6)nc(OC[C@@]56CCCN5[C@H](COC(=O)N5CCN(c7cc([C@H](C(=O)N8C[C@H](O)C[C@H]8C(=O)N[C@@H](C)c8ccc(-c9scnc9C)cc8)C(C)C)on7)CC5)CC6)nc4c3F)c12 [Compound 58, [(3S,7aS)-7a-{[(4-{3,8-diazabicyclo[3.2.1]octan-3-yl}-7-(8-ethynyl-7-fluoro-3-hydroxynaphthalen-1-yl)-8-fluoropyrido[4,3-d]pyrimidin-2-yl)oxy]methyl}-hexahydro-1H-pyrrolizin-3-yl]methyl 4-{5-[(2R)-1-[(2S,4R)-4-hydroxy-2-{[(1S)-1-[4-(4-methyl-1,3-thiazol-5-yl)phenyl]ethyl]carbamoyl}pyrrolidin-1-yl]-3-methyl-1-oxobutan-2-yl]-1,2-oxazol-3-yl}piperazine-1-carboxylate]	< 600 nM	80 to 100%
CCc1cccc2cc(O)cc(-c3ncc4c(N5CC6CCC(C5)N6)nc(N5CC(CN6CCC(CC7CN(c8cc([C@@H](C(=O)N9C[C@H](O)C[C@H]9C(=O)N[C@@H](C)c9ccc(-c%10scnc%10C)cc9)C(C)C)on8)C7)CC6)C5)nc4c3F)c12 [Compound 189, (2S,4R)-1-[(2S)-2-(3-{3-[(1-{[1-(4-{3,8-diazabicyclo[3.2.1]octan-3-yl}-7-(8-ethyl-3-hydroxynaphthalen-1-yl)-8-fluoropyrido[4,3-d]pyrimidin-2-yl)azetidin-3-yl]methyl}piperidin-4-yl)methyl]azetidin-1-yl}-1,2-oxazol-5-yl)-3-methylbutanoyl]-4-hydroxy-N-[(1S)-1-[4-(4-methyl-1,3-thiazol-5-yl)phenyl]ethyl]pyrrolidine-2-carboxamide]	> 3000 nM	
CCc1cccc2cccc(-c3ncc4c(N5CC6CCC(C5)N6)nc(OC[C@@]56CCCN5[C@H](COc5cc([C@@H](C(=O)N7C[C@H](O)C[C@H]7C(=O)N[C@@H](C)c7ccc(-c8scnc8C)cc7)C(C)C)on5)CC6)nc4c3F)c12 [Compound 55, (2S,4R)-1-[(2S)-2-(3-{[(3S,7aS)-7a-{[(4-{3,8-diazabicyclo[3.2.1]octan-3-yl}-7-(8-ethylnaphthalen-1-yl)-8-fluoropyrido[4,3-d]pyrimidin-2-yl)oxy]methyl}-hexahydro-1H-pyrrolizin-3-yl]methoxy}-1,2-oxazol-5-yl)-3-methylbutanoyl]-4-hydroxy-N-[(1S)-1-[4-(4-methyl-1,3-thiazol-5-yl)phenyl]ethyl]pyrrolidine-2-carboxamide]	> 3000 nM	
CCc1cccc2cc(O)cc(-c3ncc4c(N5CCCCCC5)nc(OC[C@@]56CCCN5[C@H](COc5cc([C@H](C(=O)N7C[C@H](O)C[C@H]7C(=O)N[C@@H](C)c7ccc(-c8scnc8C)cc7)C(C)C)on5)CC6)nc4c3F)c12 (single isomer, unassigned) [Compound 338]	< 600 nM	80 to 100%
CCc1cccc2cc(O)cc(-c3ncc4c(N5CC6CCC(C5)N6)nc(OCCN5CC[C@H]6[C@H](CCN6c6cc([C@H](C(=O)N7C[C@H](O)C[C@H]7C(=O)N[C@@H](C)c7ccc(-c8scnc8C)cc7)C(C)C)on6)C5)nc4c3F)c12 (relative stereo) [Compound 73, (2S,4R)-1-[(2R*)-2-{3-[(3aR**,7aR***)-5-{2-[(4-{3,8-diazabicyclo[3.2.1]octan-3-yl}-7-(8-ethyl-3-hydroxynaphthalen-1-yl)-8-fluoropyrido[4,3-d]pyrimidin-2-yl)oxy]ethyl}-octahydro-1H-pyrrolo[3,2-c]pyridin-1-yl]-1,2-oxazol-5-yl}-3-methylbutanoyl]-4-hydroxy-N-[(1S)-1-[4-(4-methyl-1,3-thiazol-5-yl)phenyl]ethyl]pyrrolidine-2-carboxamide]	< 600 nM	80 to 100%
CCc1cccc2cc(O)cc(-c3ncc4c(N5CC6CCC(C5)N6)nc(OCCN5CCC(C)(CCOc6cc([C@@H](C(=O)N7C[C@H](O)C[C@H]7C(=O)N[C@@H](C)c7ccc(-c8scnc8C)cc7)C(C)C)on6)CC5)nc4c3F)c12 [Compound 238]	< 600 nM	80 to 100%
CCc1cccc2cc(O)cc(-c3ncc4c(N5CC6CCC(C5)N6)nc(OC[C@@H]5CC[C@]6(COC(=O)N7CCN(c8cc([C@H](C(=O)N9C[C@H](O)C[C@H]9C(=O)N[C@@H](C)c9ccc(-c%10scnc%10C)cc9)C(C)C)on8)CC7)CCCN56)nc4c3F)c12 [Compound 342, [(3S,8S)-3-[[4-(3,8-diazabicyclo[3.2.1]octan-3-yl)-7-(8-ethyl-3-hydroxy-1-naphthyl)-8-fluoro-pyrido[4,3-d]pyrimidin-2-yl]oxymethyl]-1,2,3,5,6,7-hexahydropyrrolizin-8-yl]methyl 4-[5-[(1R)-1-[(2S,4R)-4-hydroxy-2-[[(1S)-1-[4-(4-methylthiazol-5-yl)phenyl]ethyl]carbamoyl]pyrrolidine-1-carbonyl]-isobutyl]isoxazol-3-yl]piperazine-1-carboxylate]	< 600 nM	80 to 100%
CCc1cccc2cc(O)cc(-c3ncc4c(N5CC6CCC(C5)N6)nc(OC[C@]56CCCN5[C@H](CN5CCC(COc7cc([C@H](C(=O)N8C[C@H](O)C[C@H]8C(=O)N[C@@H](C)c8ccc(-c9scnc9C)cc8)C(C)C)on7)CC5)CC6)nc4c3F)c12 [Compound 111, (2S,4R)-1-[(2R)-2-{3-[(1-{[(3S,7aR)-7a-{[(4-{3,8-diazabicyclo[3.2.1]octan-3-yl}-7-(8-ethyl-3-hydroxynaphthalen-1-yl)-8-fluoropyrido[4,3-d]pyrimidin-2-yl)oxy]methyl}-hexahydro-1H-pyrrolizin-3-yl]methyl}piperidin-4-yl)methoxy]-1,2-oxazol-5-yl}-3-methylbutanoyl]-4-hydroxy-N-[(1S)-1-[4-(4-methyl-1,3-thiazol-5-yl)phenyl]ethyl]pyrrolidine-2-carboxamide]	< 600 nM	80 to 100%
